We go through two molecules from US10617749B1, “Composition of matter and methods for alteration of dendritic cell metabolism to augment cancer vaccine efficacy” (Duke University, priority 2016, dated 2020).

Entries after “also recorded” stand apart in the source; their conditions may differ.

One data set has as its system CPT1a. As to the kind of experiment: CPT1a silencing by shRNA-expressing lentiviral vector (qrt-PCR, Western blot). Format: cell-based, mouse. The text has this: The application includes the sequence listing that is concurrently filed in computer readable form. This sequence listing is incorporated by reference herein.
Murine bone marrow-derived DCs (BMDCs) were harvested and differentiated as previously described and purified using CD11c microbeads (Miltenyi Biotec) according to manufacturer's protocol. DC purity was monitored by flow cytometry and consistently found to be >95% CD11c+F4/80-. BRAFV600EPTEN−/−-Wnt5aKD and BRAFV600EPTEN−/−-NTC cell lines were generated and cultured as previously described. DC2.4, a murine dendritic cell line was kindly provided by Dr. Kenneth L. Rock (University of Massachusetts Medical School), and cultured as previously described. DC2.4β-cateninKD, DC2.4-CPT1AKD, and DC2.4-NTC stable cell lines were generated using a β-catenin-targeted, CPT1A-targeted, or control shRNA-expressing lentivirus followed by puromycin selection. DCs were treated with Wnt3a (100 ng/mL), Wnt5a (200 ng/mL), LPS (1 μg/mL), 1-MT, 2DG (1 mM), or ETO (100 µM) vs vehicle control either for 24 or 48 hrs prior to their use in both in vitro and in vivo experiments. […]
Total RNA was isolated by RNeasy Plus Mini Kit(Qiagen). […] Quantification of mRNA for genes involved in PPARγ signaling was performed using Mouse PrimePCR PPAR Array according to the manufacturer's protocol (BioRad). […]
(In western blotting, separated proteins are transferred to a membrane and probed.)

Data set [1] has as its system bone marrow-derived DCs (BMDCs). As to the kind of experiment: DC oxygen consumption rate (OCR) / OXPHOS, extracellular flux analysis. The format is cell-based, murine. Conditions: murine DCs pre-treated with Wnt5a vs Wnt5a+ETO. The protocol: (§1) DC energy metabolism was measured using the XF^e24 extracellular flux analyzer (Seahorse Bioscience), with the glycolysis stress test kit and the mitochondrial stress test kit as previously described (Everts et al., 2014; Zhao and Klimecki, 2015).
(§2) Murine bone marrow-derived DCs (BMDCs) were harvested and differentiated as previously described and purified using CD11c microbeads (Miltenyi Biotec) according to manufacturer's protocol. DC purity was monitored by flow cytometry and consistently found to be >95% CD11c+F4/80-. BRAFV600EPTEN−/−-Wnt5aKD and BRAFV600EPTEN−/−-NTC cell lines were generated and cultured as previously described. DC2.4, a murine dendritic cell line was kindly provided by Dr. Kenneth L. Rock (University of Massachusetts Medical School), and cultured as previously described. DC2.4β-cateninKD, DC2.4-CPT1AKD, and DC2.4-NTC stable cell lines were generated using a β-catenin-targeted, CPT1A-targeted, or control shRNA-expressing lentivirus followed by puromycin selection. DCs were treated with Wnt3a (100 ng/mL), Wnt5a (200 ng/mL), LPS (1 μg/mL), 1-MT, 2DG (1 mM), or ETO (100 µM) vs vehicle control either for 24 or 48 hrs prior to their use in both in vitro and in vivo experiments.

The test system of data set [2] is human monocyte-derived DCs. As to the kind of experiment: OCR analysis of human monocyte-derived DCs. The format is cell-based. The following applies: human DCs pre-treated with Wnt5a 48 hours, short-term ETO. As for the experimental part:
Human DCs were differentiated from harvested peripheral blood mononuclear cells and pre-treated with Wnt5a 48 hours prior to OCR analysis. Short-term incubation with ETO was performed prior to analysis.
as §1
Human Monocyte-derived Dendritic Cells were generated as previously described.

A further data set deals with BMDCs. In words: DC viability, Annexin V/PI flow cytometry. Format: cell-based, murine. Conditions: BMDCs treated 48 hours. From the text:
Data is representative of two-independent experiments.

Data set [3] relates to DC-induced CD4+ FoxP3+ Tregs. As to the kind of experiment: In vitro Treg assay. The format is cell-based, mouse. As for the experimental part:
(§3) In vivo Treg assay. DCs (C57, H-2^b) were pre-treated for 48 hours and delivered by intradermal injection into the footpad of Foxp3-mRFP mice. Draining inguinal and popliteal lymph nodes were resected 5 days later and analyzed for CD4^+ Foxp3^+ Tregs. In vitro Treg assay, DCs (Balb/c, H-2^d) were pre-treated for either 24 or 48 hrs, and re-plated at a 1:3 DC:T-cell ratio with purified naïve Foxp3-mRFP(H-2^b) CD4^+ Tcells. These co-cultures were incubated for 6 days and quantitated for CD4^+ FoxP3^+ Tregs by flow cytometry.
as §2

For data set [4], the system named is DC-induced CD4+ Foxp3+ Tregs in draining lymph nodes. As to the kind of experiment: In vivo Treg assay. The following applies: conditioned primary DCs transferred into footpad of FoxP3-mRFP reporter mice. As for the experimental part: as §3
The next data set concerns OT-1 CD8+ T cells. As to the kind of experiment: T cell proliferation assay. Format: cell-based, mouse. Conditions: SIINFEKL-loaded BMDCs co-incubated with OT-1 splenocytes. The protocol: Splenocytes of OT-1 mice (H-2^b) were isolated and stained with CellTrace Violet (ThermoFisher). Preconditioned DCs were loaded with ovalbumin peptide SIINFEKL, and co-cultured at a DC:splenocyte ratio of 40,000:120,000 cells for 72 hrs. CD8+ T cell proliferation was measured by the dilution of Cell Trace Violet dye by flow cytometry.

The next data set has as its system DC IDO. In words: IDO enzymatic assay (kynurenine HPLC). Format: cell-based, mouse. As for the experimental part:
DC IDO enzyme activity was measured by the conversion of L-tryptophan to L-kynurenine in conditioned media by HPLC (Pallotta et al., 2011). Intracellular hemin levels were measured using a colorimetric assay kit (BioVision).

A further data set has as its system murine DCs. In words: qrt-PCR / ELISA gene and cytokine expression in murine DCs. Format: cell-based. The following applies: BMDCs, qrt-PCR. As for the experimental part: Total RNA was isolated by RNeasy Plus Mini Kit(Qiagen). RNA(500 ng) was used in cDNA Synthesis (iScript, BioRad). Quantification of mRNA for genes involved in PPARγ signaling was performed using Mouse PrimePCR PPAR Array according to the manufacturer's protocol (BioRad). Real-time PCR was performed using an ABI7500 Real-Time PCR system (Life Technologies). Data analysis utilized the PrimePCR Analysis Software (BioRad). Conventional qPCR was performed using validated primers (Table 1) and SsoAdvanced Universal SYBR Green Super mix (BioRad) or Taqman probes (Applied Biosystems) for heme synthesis enzymes.
Murine IL-6 (eBioscience) and IL-12p40 (Becton Dickinson) ELISAs were performed according to manufacture's protocol.
On the technique in general: ELISA stands for enzyme-linked immunosorbent assay.

For data set [5], the system named is BRAFV600EPTEN−/− melanoma. As to the kind of experiment: Syngeneic transplant tumor study. The format is in vivo, C57BL/6 mice. As for the experimental part: Mouse IFNγ ELISPOTPLUS (MABTECH) was performed according to manufacture guidelines. Imaging was conducted using a ChemiDoc System (BioRad) and quantified using ImageJ software.
Paraffin-embedded tissues were processed and stained following standard protocols and imaged with a Zeiss CLSM 700 confocal microscope. CD8 (BioLegend) and PD-L1 (Abcam) primary antibodies were utilized where indicated. Warp Red chromogen detection system (BioCare) was used for antigen visualization.
BRAFV600EPTEN−/− cells line were established as previously described. 5×10^5 cells were implanted by subcutaneous injection into syngeneic C57 mice. Tumor growth was monitored by caliper measurement. Etomoxir (Sigma, ETO) was administered daily by oral gavage (25 mg/kg/day). Anti-PD-1 rat mAb or rat IgG2a isotype control (BioXCell) was delivered every 3 days by intraperitoneal injection (250 μg/dose).

The test system of data set [6] is autochthonous BRAFV600EPTEN−/− melanoma. In words: Autochthonous tumor study with adoptively transferred pretreated DCs. The format is in vivo, transgenic mice. As for the experimental part:
B6.Cg-Braftm1Mmcm Ptentm1Hwu Tg(Tyr-cre/ERT2 H-2b)13Bos/BosJ (BRAFV600EPTEN−/−, H-2b), transgenic mice were subdermally injected with 4-HT (Sigma, 38.75 μg/mice) to induce primary melanoma development. Three days prior to 4-HT injection, 1×10^6 cells DCs pretreated with Wnt5a+/−ETO were washed and delivered by intra-dermal injection into the hind leg foot pads every 3-4 days until the conclusion of the experiment. Melanoma growth was monitored by orthagonal caliper measurements every 3-4 days between day 15 to day 32.

The next data set deals with BRAFV600EPTEN−/− cells. As to the kind of experiment: Soft agar colony formation assay. The format is cell-based, mouse. Conditions: 15 days in presence or absence of ETO. As for the experimental part:
Complete growth media—0.7% agar was overlaid with complete growth media—[…] containing 10,000 cells and additional complete growth media. After 2 weeks, colonies were stained with MTT(Sigma) to identify viable colonies and imaged by a ChemiDoc XRSplus system as previously described. Images were analyzed with NIH ImageJ to enumerate colony number.

Setting [7] is: DCs pretreated with Wnt5a+/−ETO.

For the molecule “SEQ ID NO:1: shRNA sequence for silencing mouse CPT1a (guide CCGGGCTATGGTGTTTCCTACATTACTCGAGTAATGTAGGAAACACCATAGCTTTTTG)”, in the data set on CPT1a, the “silencing of mouse CPT1a expression” value is listed as “effective for silencing the expression of mouse CPT1a”.
For the molecule `CCOC(=O)[C@@]1(CCCCCCOc2ccc(Cl)cc2)CO1` [ETO, etomoxir], in data set [1], the “Wnt5a-induced DC OXPHOS / mitochondrial respiration (OCR)” value is “ablate Wnt5a-induced DC OXPHOS; also recorded: completely ablate Wnt5a induction of both murine and human DC mitochondrial respiration; also recorded: abrogates Wnt5a-induced DC OXPHOS”. Also, in data set [2], the “Wnt5a-induced DC mitochondrial respiration (OCR)” value was “completely ablate Wnt5a induction of both murine and human DC mitochondrial respiration”. Moreover, the DC viability entry in the data set with BMDCs is given as “does not impair DC viability; also recorded: not impacting DC viability”. The “DC-mediated Treg differentiation in vitro, IDO−/− DCs” value in data set [3] (DCs derived from IDO−/− mice +/−ETO) is recorded as “dramatically suppress the ability of IDO^−/− DCs to drive Treg differentiation; also recorded: inhibition of DC-mediated Treg generation extends beyond IDO activity”. For the same molecule, the “DC-mediated Treg differentiation in vitro” value in data set [3] (pre-treated DCs co-cultured with naïve CD4+ T cells) was “ablate; also recorded: potently suppress the ability of Wnt5a-conditioned DCs to drive Treg differentiation; also recorded: inhibits Wnt5a-conditioning of DC-mediated Treg development in vitro”. The “DC-mediated Treg differentiation in vivo” value in [4] is “ablate; also recorded: potently suppress the ability of Wnt5a-conditioned DCs to drive Treg differentiation; also recorded: inhibits Wnt5a-conditioning of DC-mediated Treg development in vivo”. Moreover, the “DC-mediated antigen-specific CD8+ T cell proliferation” value in the data set with OT-1 CD8+ T cells is “significantly augment in vitro DC-dependent T cell proliferation to levels similar to that of LPS stimulation; also recorded: potently induce DC-mediated T cell activation to levels similar to those seen in response to LPS-treatment of DCs; also recorded: enhances the ability of DCs to induce OT-1 T cell proliferation”. For the same molecule, in the data set with DC IDO (TIDCs purified from BRAFV600E-PTEN−/−-NTC tumors), the “TIDC IDO enzyme activity (kynurenine)” value is “lower levels of IDO enzyme activity”. For the same molecule, in the data set with DC IDO (purified DC cultures, Wnt5a or Wnt5a+ETO), the “DC IDO enzymatic activity (kynurenine)” value is given as “completely eliminated this effect; also recorded: reverses Wnt5a-stimulation of DC IDO enzymatic activity”. Moreover, in the data set with murine DCs, the “IL-6 and IL-12 expression in primary DCs” value is listed as “alterations in cytokine expression were further recapitulated”. Further, in [5] (ETO 25 mg/kg/day oral gavage plus anti-PD-1 250 μg/dose i.p. every 3 days), the “primary melanoma growth, ETO combined with anti-PD-1 antibody” value is “significantly enhanced the anti-tumor efficacy of the anti-PD-1 antibody; also recorded: augments anti-PD-1 antibody suppression”. Further, the “primary melanoma progression, monotherapy” value in [5] (ETO 25 mg/kg/day oral gavage, anti-PD-1 250 μg/dose i.p. every 3 days) is “suppresses the progression of BRAF^V600E-PTEN^−/− melanoma similar to anti-PD-1 antibody monotherapy”. For the same molecule, in data set [6] (setting [7]), the “Tregs within draining LN tissues” value is listed as “suppression of Tregs within draining LN tissues” and the “melanoma-infiltrating CD8+ T cells” value is “enhanced numbers of melanoma-infiltrating CD8+ T cells”. Moreover, the primary melanoma progression entry in data set [6] (DCs pretreated with Wnt5a+/−ETO transferred to foot pads) is on record as “potently suppress primary melanoma progression”. The “intrinsic proliferative capacity of tumor cells (soft agar colonies)” value with BRAFV600EPTEN−/− cells is reported as “has no impact on the intrinsic proliferative capacity of this tumor model”.
